Data as given in US20110152112A1, “DIAGNOSIS AND TREATMENT OF REVERSE CHOLESTEROL TRANSPORT DEFICIENCY-RELATED DISEASES” (Artery Therapeutics, Inc., priority 2009, published 2011).

System: J774 mouse macrophages (foam-cells)
Experiment: Lipid efflux from J774 macrophage foam-cells to media (nascent HDL, LC-MS/MS)
Format: cell-based
Experimental: Study 1: Isolation of Nascent HDL from Incubations of Macrophage Foam-Cells with AT5261 and apoA-I.
A commercial transformed macrophage cell-line, J774 (mouse), was used to evaluate lipid efflux responses to peptide ATI-5261 and ApoA-I. Macrophage foam-cells were prepared and exposed to lipid-free AT5261 peptide and ApoA-I, respectively; Nascent HDL products resulting from stimulation of cholesterol efflux were isolated and concentrated from conditioned medium and analyzed for lipid content.
Near confluent T175-flasks (30 total) of J774 mouse macrophages were incubated (2 days) with 0.1 mg/ml acetylated LDL in […] culture medium containing 1% FBS, to produce foam-cells. On the day of the experiment, cell monolayers were rinsed (3 times) with 20 ml/flask of HBSS, incubated 1 h with 0.2% BSA in serum-free RPMI-1640 medium, then rinsed (3 times) with serum-free RPMI. Rinsed cells were then exposed (20 ml/flask) to either apoA-I (15 flasks) or ATI-5261 (15 flasks), at a final concentration of 10 microgram/ml serum free RPMI. Following 20 h, conditioned medium was recovered from flasks, pooled within groups, and filtered (0.2 mμ). The pooled medium (˜300 ml) was subsequently concentrated to 5 ml using an Amicon stir-cell (10 K membrane) and density adjusted to 1.21 g/ml with solid NaBr. Nascent HDL was isolated by ultracentrifugation (120K, 5 h 20 minutes, 10° C.) using a TL-120 centrifuge, samples dialyzed to saline (pH=7.4) and filter sterilized (0.2 nip, Nalgene capsules). Isolated material was used for detailed MS of PL subclasses, subjected to non-denaturing gradient gel electrophoresis and protein lipid ratios determined by 280 abs. and commercial kits.
Samples were kept at −80° C. until extraction. Samples were allowed to thaw on ice and a small aliquot of each sample was transferred into siliconized glass tubes followed by addition of ultrapure water. Samples were spiked with either a mixture of C17-based ceramide, sphingosine, sphingosine-1-phosphate and sphingomyelin (10 ng of each as internal sphingolipid standards) or ([…] of deuterated 16:0/16:0 PC as internal phosphatidylcholine standard). Samples were subjected to a Bligh and Dyer extraction (Bligh, E. G., Dryer, W. J. (1959) Can J Biochem physiol 37, 911-917). Lipid extracts were dried under stream of nitrogen at room temperature. The dried lipid extracts were then reconstituted in […] ethanol/formic acid (99.8/0.2) and kept at 4° C. until LC-MS/MS analysis. Extracts were injected onto a reverse phase C18 HPLC Column to separate and resolve the various lipids. Phosphatidylcholine and sphingolipids were eluted off the column and analyzed on a triple quadrupole mass spectrometer Sciex API 5500. The data acquisition was performed in a targeted MRM (MS/MS) mode using lipid specific precursor ion to product ion (or parent to daughter ion) mass transitions resulting in highly sensitive and specific quantitative data. The resulting data was processed using Applied Biosystems Analyst 1.4.2 software.

With “ApoA-I: apolipoprotein A-I, natures strongest effluxer, lipid-free comparator” the “Cholesterol: Phospholipid molar ratio mobilized to media” value (10 microgram/ml, 20 h, (S.D.)) was 2.89 (S.D. 0.68), the “PC mobilized to media” value (LC-MS/MS, 10 microgram/ml, 20 h) was 19 and the “LPC mobilized to media” value (LC-MS/MS, n=2) was 40. The LPC media concentrations (all LPC) was “increased”, the “phospholipid (PL) media concentrations” value (all PL) was “increased” and the “type of LPC mobilized” value (values adjusted for the 2-fold difference) was “more of longer chain and more saturated LPCs”.
